# Data taken from ChEMBL document CHEMBL3259787, “Discovery of two aminoglycoside antibiotics as inhibitors targeting the menin-mixed lineage leukaemia interface” (Bioorg Med Chem Lett, 2014).
# The source made the active and inactive calls. No cut-off for these calls is given here.
# Columns and labels:
# [1] = Inhibition of N-terminal FITC-labeled MBM1 interaction to menin (unknown origin) after 1 hr by fluorescence polarization assay; set-up: species or system Homo sapiens
# Menin (Homo sapiens) [2] = target: T1, Menin (Homo sapiens) (UniProt O00255); test: Binding affinity to menin (unknown origin) assessed as thermal stability at 50 uM by differential scanning fluorimetry (reference value: 40.46 degC)
# T1 sequence (whole entry): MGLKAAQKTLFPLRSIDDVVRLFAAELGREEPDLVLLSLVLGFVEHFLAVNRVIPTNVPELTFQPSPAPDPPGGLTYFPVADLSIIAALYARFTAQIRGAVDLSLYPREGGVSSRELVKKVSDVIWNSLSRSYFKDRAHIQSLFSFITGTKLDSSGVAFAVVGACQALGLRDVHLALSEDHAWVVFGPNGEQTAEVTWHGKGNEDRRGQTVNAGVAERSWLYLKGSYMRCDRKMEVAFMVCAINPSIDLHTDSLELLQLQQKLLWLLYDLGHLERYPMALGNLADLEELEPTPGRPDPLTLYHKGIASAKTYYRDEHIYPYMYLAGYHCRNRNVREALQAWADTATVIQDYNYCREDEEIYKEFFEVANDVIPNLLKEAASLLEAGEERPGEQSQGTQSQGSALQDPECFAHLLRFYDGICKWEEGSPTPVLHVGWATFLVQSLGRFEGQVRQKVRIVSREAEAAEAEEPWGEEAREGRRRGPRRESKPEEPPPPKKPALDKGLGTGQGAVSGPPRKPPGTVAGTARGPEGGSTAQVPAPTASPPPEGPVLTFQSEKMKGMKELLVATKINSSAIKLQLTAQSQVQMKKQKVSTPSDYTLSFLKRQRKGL
# Menin (Homo sapiens) [3] = target: T1, Menin (Homo sapiens); test: Binding affinity to menin (unknown origin) assessed as thermal stability at 200 uM by differential scanning fluorimetry (reference value: 40.46 degC)
# Menin (Homo sapiens) [4] = target: T1, Menin (Homo sapiens); test: Binding affinity to menin (unknown origin) assessed as thermal stability at 400 uM by differential scanning fluorimetry (reference value: 40.46 degC)
# Menin = target: T2, Menin (Homo sapiens, UniProt O00255); test: (§1) Binding affinity to menin (unknown origin) by isothermal titration calorimetry analysis
# T2 sequence (O00255 whole entry): T1 sequence (whole entry)
# Menin (Homo sapiens) [5] = target: T1, Menin (Homo sapiens); test: as §1
Compound,Ki [1] [µM],Tm (Menin (Homo sapiens) [2]) [°C],Tm (Menin (Homo sapiens) [3]) [°C],Tm (Menin (Homo sapiens) [4]) [°C],Kd (Menin) [µM],Activity (Menin (Homo sapiens) [5])
NC[C@@H]1O[C@H](O[C@H]2[C@@H](O)[C@H](O[C@@H]3[C@@H](O)[C@H](N)C[C@H](N)[C@H]3O[C@H]3O[C@H](CN)[C@@H](O)[C@H](O)[C@H]3N)O[C@@H]2CO)[C@H](N)[C@@H](O)[C@@H]1O [FRAMYCETIN],18.8,42.5,43.8,45.2,15.6,–
NC[C@H]1O[C@H](O[C@H]2[C@H](O)[C@@H](O[C@H]3O[C@H](CO)[C@@H](O)[C@H](N)[C@H]3O)[C@H](N)C[C@@H]2N)[C@H](N)C[C@@H]1O [TOBRAMYCIN],59.9,41.4,42.6,43.4,–,inactive
